Values after ≈ are worked out from the molar mass of the structure shown. Read-outs that look alike come from different tables or passages of the source.
Experiments:
[1] = Determination of water solubility (UV, saturated solution); assay type: physicochemical; conditions: 10 mM phosphate buffer (pH 7.4), stirred 3 hours, filtered; for solubility at 3 h: read-out: C′ (μM) = A′ (C/A), concentration of the saturated solution (water solubility)
Description: With a Beckman DUI® 7500 Spectrophotometer, the UV absorption maximum of each compound was determined by eventually diluting the solution with MeOH as necessary.
A saturated solution of each compound was then prepared by stirring magnetically a small volume of 10 mM phosphate buffer (pH 7.4) in the presence of an excess test compound for 3 hours. The obtained saturated solution was filtered in order to remove solid compound through a Gelman 0.45 m filter and scanned by UV at the wavelength of the absorption maximum previously determined.

rats [2] = conditions: cited from earlier work
[3] = test system: ischemic neuronal degeneration in hippocampus; test: Protection of cell damage by ischemia (in vivo); design: species or system Mongolian gerbils (Meriones unguiculatus); conditions: for Protective effects against ischemic neuronal degeneration: gerbil, 60 mg/kg P.O. 30 minutes after ischemic injury (post-treated), 4 days reperfusion
Description: Male Mongolian gerbils (Meriones unguiculatus) weighing 80-88 g were used in the present study. […] A midline ventral incision was made in the neck. Both common carotid arteries were isolated, freed of nerve fibers, and occluded using nontraumatic aneurysm clips. Complete interruption of blood flow was confirmed by observing the central artery in eyeballs using ophthalmoscope. After five minutes of occlusion, the aneurysm clips were removed from both common carotid arteries. Restoration of blood flow (reperfusion) was observed directly under the microscope. Sham-operated controls were subjected to the same surgical procedures except that common carotid arteries were not occluded. Body temperature was monitored and maintained at 37° C.±0.5° C. during surgery and during the immediate postoperative period until the animals recovered fully from anesthesia. At the designated reperfusion time (4 days), operated animals and sham animals were killed. Animals were perfused transcardially with phosphate-buffered saline (PBS, pH 7.4) followed by 4% paraformaldehyde in 0.1 M phosphate buffer (pH 7.4) at 4 days (n=7) after surgery. The brains were removed, and postfixed in the same fixative for 4 hours. The brain tissues were cryoprotected by infiltration with 30% sucrose overnight. Cornoy fixed specimens were cut into 30 sections on a cryostat, were sequentially stained by Cresyl violet dye. Images of staining in the hippocampus of each animal were captured with an […]. […] All data obtained from the quantitative data were analyzed using one-way ANOVA to determine statistical significance. Bonferroni's test was used for post-hoc comparisons. P values below 0.05 or 0.01 were considered statistically significant.

mice = conditions: oral administration; cited from earlier work
[4] = Glutathione peroxidase like activity (NADPH-glutathione reductase coupled system); assay type: biochemical; conditions: 50 μM compound; for Rate A340/min(30˜300 sec) / Rate/0.00622 (nmol NADPH/min/mL): 25° C.; for % Ebselen (glutathione peroxidase activity): relative to Ebselen
Description: Glutathione peroxidase like activity was determined by the reduction of GSSG formed via the NADPH-glutathione reductase system as an indicator system.
To 350 of 50 mM Tris-HCl(pH 7.6) containing 5 mM of EDTA (assay buffer) are added in the following order:
1) 350 of assay buffer containing 6.4 mM of reduced glutathione (GSH), 640 μM of […] (NADPH), and 1.6 unit/mL of glutathione disulfide reductase (GR)
2) 70 of 800 μM of the test compound which was dissolved in DMSO (i.e., each compound was tested at a final concentration of 50 μM)
3) 350 of 0.007% tert-butyl hydroperoxide which was made by 1/10,000 dilution of tert-butyl hydroperoxide with DDW.
The final reaction volume is 1120.
The reaction was carried out at 25° C. […] The said activity or initial enzymatic rate is proportional to the slope of the variation of absorbance with time.
The catalytic activity for oxygen reduction of the compounds tested corresponds to the rate of consumption of NADPH.
They are expressed in n-moles of NADPH consumed per minute.

[5] = Inhibition of lipid peroxidation of liposome (TBA method); assay type: biochemical; conditions: histidine-FeCl3/FeCl2, 37° C., 15 minutes, read-out: Inhibitor Concentration (IC50), lipid peroxidation
Description: The compounds of the present invention were tested for antioxidant effect in terms of the repression of the radical chain reaction of a multilayer liposome.
The liposome was prepared as followings: 30 mg of commercially available soybean phosphatidylcholine (PC, Sigma Chemical Co., U.S.A.) was dissolved in 1 mL of ethanol, and 200 of the ethanol/PC solution was added to 10 mL of 10 mM Tris buffer including 50 mM NaCl (pH 7.0) with stirring.
The ability of a compound to inhibit oxidation of the liposome was evaluated as followings: To 400 of the liposomes were added the test compound (in buffer or ethanol) and histidine-FeCl3 (167:33 μM final). Oxidation was initiated by the addition of FeCl2 (33 μM final prepared in nitrogen purged water). The mixtures were shaken at 37° C. for 15 minutes. […]. The aliquots were heated to 100° C. for 20 minutes. After ice cooling, 1 mL of chloroform was added to 1 mL of supernatant from tubes and tubes were centrifuged. The absorbances of the resulting supernatant were measured at 532 nm (see: Table 2).

rats [6] = test: Acute toxicity LD50 in rats; assay type: in vivo

| SMILES | C′ (g/L = mg/mL), concentration of the saturated solution (water solubility) [1] | Protective effects against ischemic neuronal degeneration [3] | Rate A340/min(30˜300 sec) [4] | Rate/0.00622 (nmol NADPH/min/mL) [4] | % Ebselen (glutathione peroxidase activity) [4] | IC50 [5] | other results |
| --- | --- | --- | --- | --- | --- | --- | --- |
| O=c1c2ccccc2[se]n1-c1ccccc1 [Ebselen, reference compound] | 0.001265 g/L = mg/mL | 59% |  |  |  |  | solubility at 3 h ([1]; aqueous buffer, thermodynamic from solid): 4.62 µM (≈ 1.27 µg/mL); LD50 (rats [2]; intraperitoneal administration): 580 mg/kg; LD50 (rats [2]; oral administration): ≥ 6,810 mg/kg; LD50 (mice): ≥ 6,810 mg/kg |
| CC(C)/[N+]([O-])=C/c1ccc(-n2[se]c3ccccc3c2=O)cc1 [Example 1, 2-[4-(N-isopropyl)nitronyl]phenyl-1,2-benzisoselenazol-3(2H)-one] |  |  | −0.141 A340/min | 22.67 nmol NADPH/min/mL | 119.50% | 81.1 µM |  |
| CC(C)/[N+]([O-])=C\c1cccc(-n2[se]c3ccccc3c2=O)c1 [Example 2, 2-[3-(N-isopropyl)nitronyl]phenyl-1,2-benzisoselenazol-3(2H)-one] |  |  | −0.125 A340/min | 20.10 nmol NADPH/min/mL | 105.96% | 111 µM |  |
| CC(C)[N+]([O-])=Cc1csc(-n2[se]c3ccccc3c2=O)n1 [Example 5, 2-[4-(N-isopropyl)nitronyl]thiazol-2-yl-1,2-benzisoselenazol-3(2H)-one] | 0.0414 g/L = mg/mL | 61% | −0.125 A340/min | 20.13 nmol NADPH/min/mL | 106.11% | 1.2 µM | solubility at 3 h [1]: 113.029 µM (≈ 41.4 µg/mL); Neuroprotective effects compared with Ebselen ([3]; gerbil ischemia, 60 mg/kg P.O.): more neuroprotective effects against ischemic neuronal degeneration than Ebselen; LD50 (rats [6]; intraperitoneal administration in rats): ≥ 800 mg/kg; LD50 (rats [6]; oral administration in rats): ≥ 7,000 mg/kg |
| CC(C)/[N+]([O-])=C\c1ccc(Cn2[se]c3ccccc3c2=O)cc1 [Example 7, 2-[4-(N-isopropyl)nitronyl]benzyl-1,2-benzisoselenazol-3(2H)-one] |  |  | −0.084 A340/min | 13.50 nmol NADPH/min/mL | 71.17% | 246 µM |  |
| CC(C)(C)[N+]([O-])=Cc1ccccc1S(=O)(=O)O [S-PBN, reference compound] |  |  |  |  |  | 25000 µM |  |

Reference: patent US6815459B2, “Seleno compounds containing nitrone moiety, their preparation and their therapeutic uses” (Sam-Sung Electronics Co., Ltd., priority 2001, dated 2004)
